Measurements reported in article PMC12391474 (Scientific Reports, 2025).
Structures can show the parent of a compound that is named as a salt.

Target: T1, Fibrinogen (FB) (Bos taurus, UniProt P02672+P02676+P12799)
T1 sequence (P02672 20-615): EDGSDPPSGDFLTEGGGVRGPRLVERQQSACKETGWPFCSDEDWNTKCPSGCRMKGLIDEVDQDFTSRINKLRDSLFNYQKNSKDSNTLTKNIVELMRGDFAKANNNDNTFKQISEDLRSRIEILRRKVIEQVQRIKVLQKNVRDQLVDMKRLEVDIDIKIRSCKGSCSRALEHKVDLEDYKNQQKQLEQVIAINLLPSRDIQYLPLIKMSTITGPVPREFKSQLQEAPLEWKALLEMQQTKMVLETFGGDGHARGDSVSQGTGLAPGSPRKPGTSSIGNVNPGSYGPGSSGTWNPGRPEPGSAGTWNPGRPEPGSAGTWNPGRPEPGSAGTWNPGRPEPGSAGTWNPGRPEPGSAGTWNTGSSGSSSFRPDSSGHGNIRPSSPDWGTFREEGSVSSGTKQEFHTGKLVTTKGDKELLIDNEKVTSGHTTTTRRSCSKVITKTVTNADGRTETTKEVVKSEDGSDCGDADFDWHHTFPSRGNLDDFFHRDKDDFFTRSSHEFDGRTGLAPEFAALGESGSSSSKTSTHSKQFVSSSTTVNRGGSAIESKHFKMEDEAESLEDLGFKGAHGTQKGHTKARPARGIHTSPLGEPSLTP
T1 sequence (P02676 1-468): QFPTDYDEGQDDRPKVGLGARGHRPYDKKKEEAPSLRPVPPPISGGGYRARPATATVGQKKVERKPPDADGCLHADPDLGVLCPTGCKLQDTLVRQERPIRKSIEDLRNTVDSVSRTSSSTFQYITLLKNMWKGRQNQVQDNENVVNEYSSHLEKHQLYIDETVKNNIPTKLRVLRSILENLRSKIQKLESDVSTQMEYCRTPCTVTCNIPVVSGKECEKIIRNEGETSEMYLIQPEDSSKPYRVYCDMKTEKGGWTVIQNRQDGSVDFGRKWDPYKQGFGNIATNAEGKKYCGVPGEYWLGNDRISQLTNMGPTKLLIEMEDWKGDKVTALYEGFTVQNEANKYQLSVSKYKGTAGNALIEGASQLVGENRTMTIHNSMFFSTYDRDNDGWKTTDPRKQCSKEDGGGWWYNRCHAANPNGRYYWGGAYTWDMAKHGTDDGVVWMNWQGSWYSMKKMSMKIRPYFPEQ
T1 sequence (P12799 25-444): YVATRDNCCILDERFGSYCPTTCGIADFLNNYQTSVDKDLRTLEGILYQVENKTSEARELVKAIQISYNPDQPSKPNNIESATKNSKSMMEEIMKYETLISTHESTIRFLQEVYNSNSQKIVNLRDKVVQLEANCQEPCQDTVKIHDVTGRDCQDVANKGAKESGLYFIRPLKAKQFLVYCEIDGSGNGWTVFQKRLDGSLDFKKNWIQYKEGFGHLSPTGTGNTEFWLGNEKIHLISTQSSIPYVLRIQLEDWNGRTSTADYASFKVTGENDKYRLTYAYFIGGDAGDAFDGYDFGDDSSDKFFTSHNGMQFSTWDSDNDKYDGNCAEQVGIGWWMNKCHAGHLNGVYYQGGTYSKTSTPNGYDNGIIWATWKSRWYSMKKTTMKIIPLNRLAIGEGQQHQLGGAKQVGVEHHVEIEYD
Experiment: intrinsic fluorescence quenching titration
Assay type: binding

Kd: 1.65 mM
SMILES: CC(C)(C)NC[C@H](O)COc1nsnc1N1CCOCC1 [TM, Timolol maleate]
